Experimental data published in publication PMC9886975, “Ligand recognition mechanism of the human relaxin family peptide receptor 4 (RXFP4)” (Nature Communications, 2023).
“Also recorded” adds a separate entry of the source.

Columns and labels:
[1] = target: T1, RXFP4 L118A+V122A (Homo sapiens, UniProt Q8TDU9, L118A/V122A); assay: cAMP accumulation, RXFP4 L118A+V122A; format: cell-based; conditions: HEK293T
T1 construct: RXFP4(1-374)-; expressed in transfected cells; host or cells: HEK293T, transient (pCMV6)
Excerpt: (§1) The full-length human RXFP4 (NCBI Reference Sequence: NM_181885.3) was cloned into a modified pFastBac vector (Invitrogen) with HA signal peptide to enhance receptor expression, followed by a 10× histidine tag and BRIL insertion at the N terminus. LgBiT subunit (Promega) was fused at the C terminus of RXFP4 connected by a 15-amino acid polypeptide linker. […] The engineered human Gαi2, Gβ1, bovine Gγ2, and scFv16 were cloned into the pFastBac vector (Invitrogen), respectively. For cAMP accumulation assay, human RXFP4 and RXFP3 (NCBI Reference Sequence: NM_016568.3) were cloned into pCMV6 constructs (OriGene Technologies). […]
(§2) CHO-K1 (ATCC, Cat#CCL-61) cells stably expressing human RXFP4 (hRXFP4-CHO) or RXFP3 (hRXFP3-CHO) were maintained in DMEM/F12 (Gibco) supplemented with 10% (v/v) fetal bovine serum (FBS) and 2 mM L-glutamine. […] Following 24 h culturing, the transfected cells were ready for detection.
(§3) Ligands were verified for their bioactivity in the beginning in hRXFP4-CHO, which were ready for use after 24 h culturing. […] The time-resolved fluorescence resonance energy transfer (TR-FRET) signals were detected by an EnVision multilabel plate reader (PerkinElmer) with the emission window ratio of 665 nm over 620 nm under 320 nm excitation. […]

[2] = target: T2, RXFP4 Q205A (Homo sapiens, UniProt Q8TDU9, Q205A); assay: cAMP accumulation, RXFP4 Q205A; format: cell-based
T2 construct: RXFP4(1-374)-; expressed in transfected cells; host or cells: HEK293T, transient (pCMV6)
Excerpt: as §1, §2, §3

[3] = target: T3, RXFP4 Y284A (Homo sapiens, UniProt Q8TDU9, Y284A); assay: cAMP accumulation, RXFP4 Y284A; format: cell-based
T3 construct: RXFP4(1-374)-; expressed in transfected cells; host or cells: HEK293T, transient (pCMV6)
Excerpt: as §1, §2, §3

[4] = target: T4, RXFP4 D104A (Homo sapiens, UniProt Q8TDU9, D104A); assay: cAMP accumulation, RXFP4 D104A; format: cell-based
T4 construct: RXFP4(1-374)-; expressed in transfected cells; host or cells: HEK293T, transient (pCMV6)
Excerpt: as §1, §2, §3

[5] = target: T5, RXFP4 L118S (Homo sapiens, UniProt Q8TDU9, L118S); assay: cAMP accumulation, RXFP4 L118S; format: cell-based; conditions: HEK293T
T5 construct: RXFP4(1-374)-; expressed in transfected cells; host or cells: HEK293T, transient (pCMV6)
Excerpt: as §1, §2, §3

[6] = target: T6, RXFP4 E100A (Homo sapiens, UniProt Q8TDU9, E100A); assay: cAMP accumulation, RXFP4 E100A; format: cell-based; conditions: HEK293T
T6 construct: RXFP4(1-374)-; expressed in transfected cells; host or cells: HEK293T, transient (pCMV6)
Excerpt: as §1, with “Technologies). The mutant receptors were modified by site-directed mutagenesis in the setting of the WT constructs, with the primers designed by QuikChange Primer Design [QuickChange Primer Design (http://agilent.com.cn)] and carried out using Phanta Max Master (Vazyme). N-terminal Flag tag was added to both WT and mutant receptors for surface expression measurement.” for “Technologies).”
as §2, §3
(§4) Inhibition of forskolin-induced cAMP accumulation was performed in HEK293T cells transiently transfected with WT and mutant receptors. All the mutant constructs were modified by single-point mutation in the setting of the WT receptor. cAMP accumulation data were analyzed using a three-parameter logistic equation to determine pEC50 and Emax values. Emax values for mutants are defined as the window between the maximal response and vehicle control (no ligand) and expressed as a percentage of the WT. […]

[7] = target: RXFP4 Q205H (Homo sapiens, UniProt Q8TDU9, Q205H); assay: cAMP accumulation, RXFP4 Q205H; format: cell-based; conditions: HEK293T
Excerpt: as §1, with “Technologies). The mutant receptors were modified by site-directed mutagenesis in the setting of the WT constructs, with the primers designed by QuikChange Primer Design [QuickChange Primer Design (http://agilent.com.cn)] and carried out using Phanta Max Master (Vazyme). N-terminal Flag tag was added to both WT and mutant receptors for surface expression measurement.” for “Technologies).”
as §2, §3, §4

[8] = test system: parental CHO-K1 cells; assay: cAMP accumulation, parental CHO-K1 cells; format: cell-based, Chinese hamster; conditions: Supplementary Fig. 2e–g
[9] = target: RXFP4 R208K (Homo sapiens, UniProt Q8TDU9, R208K); assay: cAMP accumulation, RXFP4 R208K; format: cell-based; conditions: HEK293T
Excerpt: as §1, with “Technologies). The mutant receptors were modified by site-directed mutagenesis in the setting of the WT constructs, with the primers designed by QuikChange Primer Design [QuickChange Primer Design (http://agilent.com.cn)] and carried out using Phanta Max Master (Vazyme). N-terminal Flag tag was added to both WT and mutant receptors for surface expression measurement.” for “Technologies).”
as §2, §3, §4

[10] = test system: human RXFP3; assay: inhibition of forskolin-induced cAMP accumulation, WT RXFP3 (hRXFP3-CHO); format: cell-based; conditions: binding and cAMP assays, Fig. 3e, Supplementary Fig. 2e–g
Description: CHO-K1 (ATCC, Cat#CCL-61) cells stably expressing human RXFP4 (hRXFP4-CHO) or RXFP3 (hRXFP3-CHO) were maintained in DMEM/F12 (Gibco) supplemented with 10% (v/v) fetal bovine serum (FBS) and 2 mM L-glutamine. Human embryonic kidney 293 T cells containing SV40 large T-antigen (HEK293T, ATCC, Cat#64127316) were maintained in DMEM (Gibco) supplemented with 10% (v/v) FBS, 1 mM sodium pyruvate (Gibco), 100 units/mL penicillin and 100 μg/mL streptomycin at 37 °C in 5% CO2. For cAMP assays in mutants, HEK293T cells were seeded onto 6-well cell culture plates at a density of 7 × 10^5 cells per well. After overnight incubation, cells were transfected with WT or mutant receptors using Lipofectamine 3000 transfection reagent (Invitrogen). Following 24 h culturing, the transfected cells were ready for detection.
as §3
All functional study data were analyzed using GraphPad Prism 8.3 (GraphPad Software) and presented as means ± S.E.M. from at least three independent experiments. Dose-response curves were evaluated with a three-parameter logistic equation. […]

[11] = 1.5 μM forskolin, mean ± S.E.M., n = 3

Sequence of RXFP4 R208K (Q8TDU9 whole entry R208K): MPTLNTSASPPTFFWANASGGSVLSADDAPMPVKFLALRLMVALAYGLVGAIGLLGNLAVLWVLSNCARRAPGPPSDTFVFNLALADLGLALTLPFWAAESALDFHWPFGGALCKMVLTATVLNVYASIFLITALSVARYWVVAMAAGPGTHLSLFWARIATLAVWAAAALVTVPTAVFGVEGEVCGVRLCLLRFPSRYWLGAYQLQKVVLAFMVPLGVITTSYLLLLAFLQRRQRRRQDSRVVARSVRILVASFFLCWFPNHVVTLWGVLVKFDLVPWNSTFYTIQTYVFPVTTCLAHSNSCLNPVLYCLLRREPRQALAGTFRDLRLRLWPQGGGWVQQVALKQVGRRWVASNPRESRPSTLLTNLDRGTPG
Sequence of RXFP4 Q205H (Q8TDU9 whole entry Q205H): as the sequence (Q8TDU9 whole entry R208K) above, with Q205H, K208R counted along it
T6 sequence (Q8TDU9 whole entry E100A): as the sequence (Q8TDU9 whole entry R208K) above, with E100A, K208R counted along it
T2 sequence (Q8TDU9 whole entry Q205A): as the sequence (Q8TDU9 whole entry R208K) above, with Q205A, K208R counted along it
T3 sequence (Q8TDU9 whole entry Y284A): as the sequence (Q8TDU9 whole entry R208K) above, with K208R, Y284A counted along it
T4 sequence (Q8TDU9 whole entry D104A): as the sequence (Q8TDU9 whole entry R208K) above, with D104A, K208R counted along it
T1 sequence (Q8TDU9 whole entry L118A/V122A): as the sequence (Q8TDU9 whole entry R208K) above, with L118A, V122A, K208R counted along it
T5 sequence (Q8TDU9 whole entry L118S): as the sequence (Q8TDU9 whole entry R208K) above, with L118S, K208R counted along it

| Compound | response [1] | EC50 [2] | Emax ([2]; HEK293T, mean ± S.E.M.) | EC50 [3] | Emax ([3]; HEK293T, mean ± S.E.M.) | EC50 [4] | Emax ([4]; HEK293T, mean ± S.E.M.) | response [5] | cAMP response [6] | EC50 ([6]; 1.5 μM forskolin, mean ± S.E.M., N.A., not active) | Emax ([6]; mean ± S.E.M.) | response [7] | EC50 [7, 11] | Emax ([7]; mean ± S.E.M.) | reaction with parental CHO-K1 cells [8] | response [9] | EC50 [9, 11] | Emax ([9]; mean ± S.E.M.) | cross-reactivity with RXFP3 [10] |
| --- | --- | --- | --- | --- | --- | --- | --- | --- | --- | --- | --- | --- | --- | --- | --- | --- | --- | --- | --- |
| CC[C@H](C)[C@@H]1NC(=O)[C@H](Cc2ccc(O)cc2)NC(=O)[C@H]([C@@H](C)CC)NC(=O)[C@H](C(C)C)NC(=O)[C@H]([C@@H](C)O)NC(=O)[C@H](CCCNC(=N)N)NC(=O)[C@H]([C@@H](C)CC)NC(=O)[C@H](Cc2ccc(O)cc2)NC(=O)[C@H](CCC(=O)O)NC(=O)[C@H](CC(C)C)NC(=O)CNC(=O)[C@@H](NC(=O)[C@H](CC(C)C)NC(=O)[C@H](CCCNC(=N)N)NC(=O)[C@@H](NC(=O)[C@H](CO)NC(=O)[C@H](CCC(=O)O)NC(=O)[C@@H](N)CCCCN)C(C)C)CSSC[C@@H]2NC(=O)[C@@H](NC(=O)[C@H](CC(C)C)NC(=O)[C@@H](NC(=O)[C@H](CCC(N)=O)NC(=O)[C@H](CC(C)C)NC(=O)[C@H](CC(=O)O)NC(=O)[C@@H](N)CCC(N)=O)[C@@H](C)O)CSSC[C@H](NC(=O)CNC(=O)[C@H](CC(=O)O)NC(=O)[C@H]([C@@H](C)O)NC2=O)C(=O)N[C@@H](CO)C(=O)N[C@@H](CCSC)C(=O)N[C@@H]([C@@H](C)O)C(=O)N[C@@H](CC(=O)O)C(=O)N[C@@H](CC(C)C)C(=O)N[C@@H](CO)C(=O)N[C@@H](C)C(=O)N[C@@H](CC(C)C)C(=O)N[C@H](C(=O)O)CSSC[C@@H](C(=O)N[C@@H](C)C(=O)N[C@@H](CO)C(=O)N[C@@H](CO)C(=O)N[C@@H](CCCNC(=N)N)C(=O)N[C@@H](Cc2c[nH]c3ccccc23)C(=O)O)NC1=O [INSL5, insulin-like peptide 5] | inactive | 3.98 nM | 50.94 ± 6.54 % WT | 1.82 nM | 49.25 ± 4.06 % WT | 1.62 nM | 59.09 ± 6.41 % WT | inactive | – | – | – | – | – | – | – | – | – | – | – |
| CCOc1cc2c(cc1OC)CCN(C(=O)N1CCOCC1)[C@H]2CCc1c[nH]c2ccc(OC)cc12 [DC591053, (S)-(7-ethoxy-6-methoxy-1-(2-(5-methoxy-1H-indol-3-yl)ethyl)−3,4-dihydroisoquinolin-2(1H)-yl)(morpholino)methanone] | – | – | – | – | – | – | – | – | unchanged agonism | 107 nM | 79.27 ± 6.72 % WT | more profound reduction for DC591053 than compound 4 | 676 nM | 25.10 ± 6.36 % WT | neither reacted with RXFP3 nor parental CHO-K1 cells | more profound reduction for DC591053 than compound 4 | 204 nM | 60.43 ± 6.52 % WT | neither reacted with related RXFP3; also recorded: without observable cross-reactivity |
